{"source": "patent US20050148034A1", "about": "“Methods for identification of modulators of angiogenesis, compounds discovered thereby, and methods of treatment using the compounds” (priority 2002, published 2005)", "key": {"[1]": {"test_system": "human umbilical cord vessel rings", "experiment": "Human angiogenesis assay (umbilical artery vessel rings in Matrigel)", "type": "cell-based", "conditions": "for Microvessel Growth (% Inhibition): vs 0.1% DMSO, three weeks, average of two rings", "description": "Fresh human umbilical cords were collected by trained medical personnel under fill donor informed consent from local hospitals. The cords were transported and treated within three hours. Umbilical cords and vessel lumens were rinsed with chilled basal nutrient medium. The artery was removed from the cord using mechanical means, forceps and small surgical scissors in an aseptic field. The vessel was cleaned of connective tissue and vessel rings were cut cross-wise in a length of 1 mm. The rings were placed into EGM-2 medium (Clonetics Corp.) in a 50 ml conical bottom tube and stored at 4° C. Six-well tissue culture plates were covered with […] of Matrigel and allowed to gel for 30-45 min at 37° C., under 5% CO2. The vessel rings were rinsed in EGM-2 medium and placed on the Matrigel-coated wells, covered with additional 250 μl Matrigel, and allowed to gel for 30-45 min at 37° C. (see FIG. 6). The vessels were cultured for 24 hours in 4 ml of EGM-2 to allow the tissue to adapt to its new environment. After 24 hours incubation, the rings were treated either with 0.1% DMSO as control, or different concentrations of compounds (thalidomide or CC4047). Culture medium was changed twice per week for total of three weeks.\nThe effects of compounds on cultured vessel rings were compared with the effect of DMSO on vessel rings. The results were analyzed using Image-Pro® Plus software (MediaCybernetics, Inc. Carlsbad, Calif.).\nThese experiments were done in duplicates and the results are the average of two rings in same experiment. A different concentration of Fumagillin is used as positive control in this experiment."}, "rat aortic rings": {"test_system": "rat aortic rings", "experiment": "Rat aortic angiogenesis assay", "type": "cell-based, Sprague Dawley rats", "description": "Twelve well tissue culture grade plates were covered with 250 μl of Matrigel and allowed to gel for 30-45 min at 370 C, 5% Co2. Thoracic aortas were excised from eight to ten week old male Sprague Dawley rats and the fibroadipose tissue was removed. The aortas were sectioned into 1 mm long sections, rinsed eight times with EGM-2 (Clonetics Corp), placed on the Matrigel coated wells, covered with additional 250 μl Matrigel, and allowed to gel for 30-45 min at 370 C. The rings were cultured for 24 hours in 2 ml of EGM-2. After 24 hours, recombinant murine endostatin was reconstituted in EBM and added as a single treatment on day 1. Thalidomide was added at different concentrations (1 μg/ml, 5 μg/ml, 10 μg/ml, 50 μg/ml and 100 μg/ml) in the presence or absence of rabbit microsomes as noted in the Table 5. Aortic rings were photographed on days."}, "[2]": {"test_system": "embryonic-like stem cells derived from placenta", "experiment": "Immunostaining for CD34, CD45 and CD105 in cultured placental stem cells (ratios to TNC, Table 3)", "type": "cell-based, human", "conditions": "for CD34/TNC / CD45/TNC / CD105/TNC: placental conditioned media, 14 days in culture", "description": "The cells were scored for the expression of CD34 (a marker of early hematopoietic progenitor cells; also an endothelial cell marker), CD45 (a marker of all hematopoietic cells except erythrocytes), CD105 (a marker of proliferating endothelial cells), smooth muscle cell (SMC)-specific myosin heavy chain, nestin ([…]), and glial fibrillary acidic protein (GFAP). Ratios of CD34 cells/TNC (Total Number of Cells), CD45 cells/TNC and CD105 cells/TNC were also determined.\nIn another experiment, the results of which are summarized in Table 3, embryonic-like stem cells derived from placenta were cultured, using the conditions described in the umbilical vessel ring assay described above, in the presence of placenta-conditioned medium with DMSO (negative control), Thalomid™, Actimid™ or Revimid™. After 14 days in culture, the cells were then immunostained for expression of CD34+, CD45+ and CD 105+."}, "[3]": {"test_system": "umbilical vessel explant / cultured cells", "experiment": "Umbilical vessel ring assays, photomicrographs of cultured cells (FIGS. 1-3)", "type": "cell-based, human", "description": "FIGS. 1(A-D). Photomicrographs of cultured cells in umbilical vessel ring assays as described in Section 6.2. A. Positive control. The explant was cultured in media+EGCF 200 μg/ml. […] B. Negative control. The explant was cultured in placental conditioned media+supplement. In the absence of EGCF, fewer cells migrated from the explant than in the positive control (A). C. Treatment Group 3. The explant was cultured in placental conditioned media+EGCF 200 μg/ml+Thalomid™ 100 μg/ml. […] D. Treatment Group 2. The explant was cultured in placental conditioned media+EGCF 200 μg/ml+Thalomid™ 10 μg/ml.\nFIGS. 2(A-C). Photomicrographs of cultured cells in umbilical vessel ring assays as described in Section 6.2. A. Control. Cells were cultured in placental conditioned media+ECGF 200 μg/ml+DMSO 1 μg/ml. B. Cells were cultured in placental conditioned media+ECGF 200 μg/ml+DMSO 1 μg/ml+Thalomid™ 1 μg/ml. […]. Cells were cultured in placental conditioned media+ECGF 200 μg/ml+DMSO 1 μg/ml+Thalomid™ 10 μg/ml.\nFIGS. 3(A-B). Photomicrographs of cultured cells in umbilical vessel ring assays as described in Section 6. A. Control. Cells were cultured in placental conditioned media+DMSO. […] B. Cells were cultured in placental conditioned media+DMSO+Thalomid™.\nEmbryonic-like stem cells were isolated from placenta as described above in Section 5.4. The embryonic-like stem cells were cultured using the culture conditions described above."}, "[4]": {"test_system": "embryonic-like stem cells derived from placenta", "experiment": "Total vessel area/field and branching/bifurcation of cultured placental embryonic-like stem cells (Table 4)", "type": "cell-based, human", "design": "key to Branching/Bifurcation (+/−): +: a branch or bifurcation was observed; −: no branch or bifurcation was observed", "description": "In another experiment, the results of which are summarized in Table 4, embryonic-like stem cells derived from placenta were cultured, using the culture conditions described above, and in the presence of EGCF, DMSO, Thalomid™, Actimid™ or Revimid™.\nA “+” means that a branch or bifurcation was observed and a “−” means that no branch or bifurcation was observed. […] See also FIGS. 3A, 3B"}}, "data": [{"compound": "O=C1CCC(N2C(=O)c3ccccc3C2=O)C(=O)N1", "note": "(stereo not shown) [Thalomid, thalidomide, reference compound]", "values": [{"measurement": "Microvessel Growth (% Inhibition)", "setting": "[1]; 0..1 μM", "result": 40, "unit": "% Inhibition"}, {"measurement": "Microvessel Growth (% Inhibition)", "setting": "[1]; 1 μM", "result": 81.4, "unit": "% Inhibition"}, {"measurement": "Microvessel Growth (% Inhibition)", "setting": "[1]; 10 μM", "result": 100, "unit": "% Inhibition"}, {"measurement": "formation of microvessel outgrowth", "setting": "[1]; compared with DMSO treated samples", "result": "inhibited the formation of microvessel outgrowth in a dose dependent manner"}, {"measurement": "need of microsomes for activity", "setting": "[1]; human ring assay, compared with rat ring results", "result": "no need for either human or rabbit microsome"}, {"measurement": "mean microvessel growth (% of control)", "setting": "rat aortic rings; 10 μg/ml, + Rabbit microsomes", "result": "16.6 % of control"}, {"measurement": "mean microvessel growth (% of control)", "setting": "rat aortic rings; 10 μg/ml, without microsomes", "result": "60 % of control"}, {"measurement": "mean microvessel growth (% of control)", "setting": "rat aortic rings; 50 μg/ml, + Rabbit microsomes", "result": "17.6 % of control"}, {"measurement": "mean microvessel growth (% of control)", "setting": "rat aortic rings; 50 μg/ml, without microsomes", "result": "82 % of control"}, {"measurement": "need of rabbit microsomes for inhibition of vessel formation", "setting": "rat aortic rings; summary of Table 5", "result": "requires the addition of rabbit microsome in order to show efficient inhibition of vessel formation"}, {"measurement": "CD34/TNC", "setting": "[2]; 10 μg/ml", "result": 0.64}, {"measurement": "CD45/TNC", "setting": "[2]; 10 μg/ml", "result": 3.87}, {"measurement": "CD105/TNC", "setting": "[2]; 10 μg/ml", "result": 6.8}, {"measurement": "CD34/TNC", "setting": "[2]; 100 μg/ml", "result": 0.38}, {"measurement": "CD45/TNC", "setting": "[2]; 100 μg/ml", "result": 4.21}, {"measurement": "CD105/TNC", "setting": "[2]; 100 μg/ml", "result": 7.0}, {"measurement": "numbers of cells expressing CD34, CD45 and CD 105", "setting": "[2]; summary of Table 3", "result": "decrease"}, {"measurement": "cell phenotype (branching / non-branching)", "setting": "[3]; placental conditioned media + DMSO (FIG. 3)", "result": "More cells exhibit a branching (e.g., neuronal) phenotype than in the control"}, {"measurement": "number of cells seen", "setting": "[3]; placental conditioned media + ECGF 200 μg/ml + DMSO 1 μg/ml + 1 μg/ml (FIG. 2)", "result": "Fewer cells are seen than in the control"}, {"measurement": "number of cells seen", "setting": "[3]; placental conditioned media + ECGF 200 μg/ml + DMSO 1 μg/ml + 10 μg/ml (FIG. 2)", "result": "Fewer cells are seen than in the control (A) or in (B)"}, {"measurement": "cell migration from the explant and outgrowth", "setting": "[3]; placental conditioned media + EGCF 200 μg/ml + 10 μg/ml (FIG. 1D)", "result": "cells migrated a shorter distance from the explant and they exhibited less dense outgrowth than in the positive control"}, {"measurement": "cell migration from the explant", "setting": "[3]; placental conditioned media + EGCF 200 μg/ml + 100 μg/ml (FIG. 1C)", "result": "cells migrated a shorter distance from the explant than in the positive control"}, {"measurement": "Branching/Bifurcation (+/−)", "setting": "[4]; 1 μg/ml", "result": "−"}, {"measurement": "Total Vessel Area/Field (% Coverage)", "setting": "[4]; 1 μg/ml", "result": "24.1 +/− 4.4 % Coverage"}, {"measurement": "Branching/Bifurcation (+/−)", "setting": "[4]; 10 μg/ml", "result": "−"}, {"measurement": "Total Vessel Area/Field (% Coverage)", "setting": "[4]; 10 μg/ml", "result": "14.8 +/− 7.2 % Coverage"}, {"measurement": "branching and/or bifurcation exhibited by the cells", "setting": "[4]; summary of Table 4", "result": "decreases the branching and/or bifurcation exhibited by the cells"}, {"measurement": "total vessel area/field covered by the cells", "setting": "[4]; summary of Table 4", "result": "decrease in the total vessel area/field covered by the cells"}]}]}
